The source of these data is patent US7432299B2, “Method of treatment for sexual dysfunction” (Pfizer Inc., priority 2002, dated 2008).

Experiment [1] has as its system rapid ejaculating rats. Description: Copulatory behaviour in rapid ejaculating conscious rats (model of premature ejaculation). In kind it is in vivo, rat. As for the experimental part: For all the sexual behavour tests, the rapid ejaculating male rats were used as an animal model of premature ejaculation (classified as ejaculatory latency <300 s during baseline assessment). Rapid ejaculating rats were placed in an observation arena (50-60 cm diameter), starting 5 hours into the dark cycle and observed under red ilumination. Three to four minutes after placing the male in the arena, a receptive female (ovariectomised, oestradiol benzoate/progesterone injection 48 hour before behavioural study) was introduced into the arena and the following parameters noted: • i) ejaculatory latency (EJL; time taken from addition of receptive female into the arena to ejaculation); • ii) copulatory efficiency (CE; ejaculatory latency/the number of intromissions to ejaculation, i.e. the number of seconds between intromissions); • iii) intromission frequency (IF; the number of intromissions to ejaculation); • iv) mount frequency (MF; the number of mounts to ejaculation); • v) post ejaculatory interval (PEI; the time taken from ejaculation to the commencement of copulatory behaviour). The Compound Used in the Following Examples was as Follows:
Rodent copulatory behaviour is characterised by a series of mounts, with and without vaginal insertion (50-80% of mounts result in intromission [vaginal penetration]) and ejaculation occurs after 6 to 12 intromissions. Each intromission lasts a matter of seconds—it is not possible to quantify intromission length i.e. intravaginal latency. The effect of Compound (XI) was assessed on a number of copulatory parameters (see above). We have focused ejaculatory latency as a clinical biomarker of time taken to achieve ejaculation. The study was performed in rapid ejaculating rats as a model of premature ejaculation (rats characterised by ejaculatory latency <300 s at baseline).
Compound (XI), an alpha-2-delta ligand, increased ejaculatory latency by 58% in rapidly-ejaculating conscious rats (P<0.01); i.e. Compound (XI) (10 mg/kg, 60 min post oral dosing)-treated animals took 219 s to ejaculate compared to 139 s in vehicle treated animals (see Table 2 below).

Experiment [2] concerns PCA-induced ejaculation in anaesthetised rats. Description: p-chloroamphetamine (PCA)-induced ejaculation in anaesthetised rat model of premature ejaculation. The experiment is classed as in vivo. To be noted: for animals that failed to ejaculate within 30 minutes: assigned ejaculatory latency of 1800 s. On the procedure:
In order to study penile erection and ejaculation the method used was based on the methodology taught in Yonezawa et al (2000) Life Sciences 67, 3031-3039. For ease of reference, this methodology is described below:
Male Sprague Dawley rats, weighing 350-450 g, are used. Prior to the experiments the animals are housed in groups (2 rats per cage) under controlled 12 h light-dark cycle (lights on at 07:00), constant temperature (23±1° C.) and humidity (55±5%). They have free access to standard food pellets and water.
Rats are anesthestised with sodium pentobarbitone (50 mg/kg, i.p.) and are placed in the supine position. The penis is extruded from its sheath and gently held by a wooden applicator positioned at the base of the penis. The test compounds are administered orally and p-chloroamphetamine (PCA) (5-10 mg/kg) is administered i.p. immediately before the sheath retraction and the penile responses, including penile erection, redding and expansion of the penile body, glans erection, engorgement and slight flaring of the glans and cup, glans erection with intense flaring of the glans, are recorded in the presence of test compound or vehicle. Latencies from PCA administration to the initial penile response and ejaculation is also measured in seconds in the presence of test compound or vehicle.
Compound (XI) was dosed orally and was tested at 1, 3, 10 or 30 mg/kg po, 60 min prior to PCA administration).

For the compound `NC[C@]1(CC(=O)O)C[C@H]2CCC[C@H]21` [Compound (XI), (1R,5R,6S)-[6-(Aminomethyl)bicyclo[3.2.0]hept-6-yl]acetic acid], the “ejaculatory latency” value is 219 ± 26 s in experiment [1] (10 mg/kg po, mean ± sem (n = 6), P < 0.01) and “circa 1000 s” in experiment [2] (anaesthetised rats, doses above 3 mg/kg po, vehicle circa 300 s). In addition, the “other effects on copulatory behaviour” value in experiment [1] (rapidly-ejaculating conscious rats, 10 mg/kg po) is given as “no other significant effects”. The “increase of ejaculatory latency” value is 58% in experiment [1] (rapidly-ejaculating conscious rats, 10 mg/kg, 60 min post oral dosing, P<0.01) and “up to 250%” in experiment [2] (anaesthetised rats, dose-dependent, 1-30 mg/kg po, 60 min prior to PCA). Further, in experiment [1] (rapidly-ejaculating conscious rats, 10 mg/kg, 60 min post oral dosing, vehicle 139 s), the “time to ejaculate (ejaculatory latency)” value is 219 s. Moreover, the “animals that failed to ejaculate within 30 minutes” value in experiment [2] (3 mg/kg po) and in experiment [2] (10 mg/kg po) was 3 out of 7 in each case. The “time taken to achieve erection” value in experiment [2] (10 mg/kg po) and in experiment [2] (30 mg/kg po) was “small delay” in each case. Further, the “p-chloroamphetamine (PCA)-induced ejaculation” value in experiment [2] (anaesthetised rats, 1, 3, 10 or 30 mg/kg po, 60 min prior to PCA administration) is reported as “significantly delayed”. For the same compound, the quality of erection entry in experiment [2] (anaesthetised rats, 1-30 mg/kg po) was “not influenced”.
